Measurements reported in paper PMC10683023, “Targeting Glial Cells by Organic Anion-Transporting Polypeptide 1C1 (OATP1C1)-Utilizing L-Thyroxine-Derived Prodrugs” (Journal of Medicinal Chemistry, 2023).

Assays:
OATP1C1 = target: T1, OATP1C1 (Homo sapiens, UniProt Q9NYB5); assay: Competitive uptake into U-87MG cells in the presence of OATP1C1 inhibitors diclofenac and flufenamic acid; type: cell-based; conditions: 100 μM prodrug; for Cellular uptake in the presence of OATP1C1 inhibitors (DCF and FFA): 100 μM inhibitor, result in words; for Reduction of cellular uptake by DCF: 100 μM diclofenac
T1 construct: human U-87MG cells that expressed OATP1C1, but not other OATPs; endogenous in cells; host or cells: U-87MG human glioma cells
T1 sequence (Q9NYB5 1-712): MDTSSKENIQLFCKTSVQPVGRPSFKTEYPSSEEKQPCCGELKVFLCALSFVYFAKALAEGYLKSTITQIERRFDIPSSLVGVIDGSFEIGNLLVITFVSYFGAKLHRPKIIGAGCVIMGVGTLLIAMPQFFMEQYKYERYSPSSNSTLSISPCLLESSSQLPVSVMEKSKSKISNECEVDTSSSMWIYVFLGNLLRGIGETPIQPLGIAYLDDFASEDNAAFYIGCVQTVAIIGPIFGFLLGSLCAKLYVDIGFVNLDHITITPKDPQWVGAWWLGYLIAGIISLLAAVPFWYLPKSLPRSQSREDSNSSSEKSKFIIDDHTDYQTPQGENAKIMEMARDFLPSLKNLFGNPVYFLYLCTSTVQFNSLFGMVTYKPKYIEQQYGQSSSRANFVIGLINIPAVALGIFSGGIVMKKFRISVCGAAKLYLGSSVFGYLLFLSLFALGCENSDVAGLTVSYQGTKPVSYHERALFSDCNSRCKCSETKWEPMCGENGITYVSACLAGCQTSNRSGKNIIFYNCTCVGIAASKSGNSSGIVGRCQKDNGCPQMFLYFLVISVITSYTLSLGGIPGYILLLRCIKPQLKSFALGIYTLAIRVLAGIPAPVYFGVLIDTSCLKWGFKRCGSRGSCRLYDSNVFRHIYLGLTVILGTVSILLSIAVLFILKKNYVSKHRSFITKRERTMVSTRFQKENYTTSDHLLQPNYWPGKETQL
Description: The competitive uptake in the presence of OATP-inhibitors or competing substrates (100 μM), diclofenac (DFC) and flufenamic acid (FFA), for OATP1C1 and naringin (NRG) for OATP1A2 was carried out as described above with HBSS buffer at pH 7.4 containing 100 μM of the studied compound. The cells were preincubated with the inhibitors for 10 min, and the incubation mixture was removed before adding the studied compound and the inhibitor to the cells. The competitive uptake (30 min) with the inhibitor was then carried out as the normal uptake described above. The concentrations of the studied compounds were analyzed by the HPLC methods described below, calculated from the spiked standard curve, and normalized with the protein concentrations.
(§1) The amount of prodrug 1–8 was determined by the HPLC system, which consisted of an Agilent 1100 binary pump (Agilent Technologies Inc., Wilmington, DE), an 1100 micro vacuum degasser, an HP 1050 Autosampler, and an HP 1050 variable wavelength detector, operated at 230–240 nm. The chromatographic separations were achieved on an Agilent Zorbax SB-C18 analytical column (4.4 mm × 150 mm, 5 μm) (Agilent Technologies Inc., Wilmington, DE) by using isocratic elution of water containing 0.1% formic acid (pH ca. 3.0) and acetonitrile containing 0.1% formic acid with ratios of 50:50, 30:70, 40:60, 50:50, 50:50, 40:60, 40:60, and 30:70 (v/v), respectively, for prodrug 1–8. […] The lower limit of quantification for prodrugs 1–8 was 0.20 μM. These HPLC methods were also accurate, precise, and selective over the range of 0.5–20 μM.

[1] = Enzymatic bioconversion in mouse serum; type: in vitro ADME; conditions: for Enzymatic stability, remaining percentage, mouse serum: after 5 h incubation
Description: (§2) The rates of bioactivation of the prodrugs 1–8 in mouse and human liver S9 fractions, as well as in mouse primary astrocyte–microglia homogenate, were determined at +37 °C. The incubation mixtures were prepared by mixing liver S9 subcellular fraction or brain cell homogenate (final protein concentration 1.0 mg/mL) with isotonic Tris–HCl buffer (pH 7.4) and 10 mM prodrug stock solution in DMSO (the initial concentration of prodrugs was 100 μM and the DMSO concentration was […]). The mixture was incubated for 5 h, and the samples ([…]) were withdrawn at appropriate intervals. The enzymatic reaction was terminated by the addition of ice-cold acetonitrile ([…]), and the samples were centrifuged for 5 min at 12 000 rpm at room temperature and kept on ice until the supernatants were analyzed by the HPLC method described below. In blank reactions, the S9 fractions were replaced with the same volume of buffer. The pseudo-first-order half-lives (t1/2) for the rates of bioconversion of the prodrugs were calculated from the slope of the linear portion of the plotted logarithm of the remaining prodrug concentration versus time. The rates of bioactivation of prodrugs 1–8 in human plasma and mouse serum were determined at 37 °C as above by adding 10 mM stock solution of the prodrug to plasma/serum in a ratio of 1:10 and analyzed similarly to the samples from S9 fractions.
as §1

[2] = Enzymatic bioconversion in mouse primary astrocyte–microglia homogenate; type: in vitro ADME; conditions: after 5 h incubation, 100 μM prodrug, 37 °C, mean ± SD, n = 3
Description: as §2, §1

[3] = Enzymatic bioconversion in human liver S9 fraction; type: in vitro ADME; conditions: for Enzymatic stability, remaining percentage, human liver S9: after 5 h incubation, 100 μM prodrug
Description: as §2, §1

Structure (SMILES) | Cellular uptake in the presence of OATP1C1 inhibitors (DCF and FFA) (OATP1C1) | Enzymatic stability, remaining percentage, mouse serum ([1]; 37 °C, mean ± SD, n = 3) [%] | Enzymatic stability, remaining percentage, mouse brain cell homogenate [2] [%] | Bioconversion rate in human liver relative to the corresponding T4 derivative ([3]; DIT prodrug faster than T4 prodrug) [times] | Enzymatic stability, remaining percentage, human liver S9 ([3]; 37 °C, mean ± SD, n = 3) [%] | half-life at 100 µM ([3]; human, pH 7.4, liver S9 fraction, 37 °C, mean ± SD, n = 3, read-out: Enzymatic bioconversion half-life t1/2, human liver) [h] | Bioconversion rate in mouse serum relative to human plasma ([1]; higher in mouse serum) [times] | half-life at 1 mM ([1]; mouse, serum, 37 °C, mean ± SD, n = 3, read-out: Enzymatic bioconversion half-life t1/2, mouse serum) [h] | Reduction of cellular uptake by DCF (OATP1C1) | inhibition at 30 min, 100 μM (OATP1C1; human, pH 7.4, with flufenamic acid (FFA) 100 μM, 100 μM flufenamic acid, read-out: Inhibition of cellular uptake by FFA) [%] | Bioconversion rate in human liver, slower than that of prodrug 6 [3]
CC(C(=O)Oc1c(I)cc(C[C@H](N)C(=O)O)cc1I)c1ccc(-c2ccccc2)c(F)c1 (mixture of isomers) [Prodrug 7, (2S)-2-Amino-3-(4-((2-(2-fluoro-[1,1′-biphenyl]-4-yl)propanoyl)oxy)-3,5-diiodophenyl)propanoic acid] | significantly reduced | 94.89 ± 5.11 | 92.68 ± 7.32 | ~2.5 | 30.54 ± 3.21 | 2.91 ± 0.25 | – | – | – | – | –
N[C@@H](Cc1cc(I)c(OC(=O)c2ccccc2O)c(I)c1)C(=O)O [Prodrug 3, (S)-2-Amino-3-(4-((2-hydroxybenzoyl)oxy)-3,5-diiodophenyl)propanoic acid] | not affected significantly | 14.40 ± 0.60 | 95.26 ± 4.74 | – | 96.84 ± 3.16 | – | 5 | 1.39 ± 0.49 | – | – | –
CC(C(=O)Oc1c(I)cc(Oc2c(I)cc(C[C@H](N)C(=O)O)cc2I)cc1I)c1ccc(-c2ccccc2)c(F)c1 (mixture of isomers) [Prodrug 8, (2S)-2-Amino-3-(4-(4-((2-(2-fluoro-[1,1′-biphenyl]-4-yl)propanoyl)oxy)-3,5-diiodophenoxy)-3,5-diiodophenyl)propanoic acid] | significantly reduced | 96.79 ± 3.21 | 97.94 ± 2.06 | – | 80.17 ± 2.23 | – | – | – | – | – | –
CC(C(=O)Oc1c(I)cc(Oc2c(I)cc(C[C@H](N)C(=O)O)cc2I)cc1I)c1cccc(C(=O)c2ccccc2)c1 (mixture of isomers) [Prodrug 2, (2S)-2-Amino-3-(4-(4-((2-(3-benzoylphenyl)propanoyl)oxy)-3,5-diiodophenoxy)-3,5-diiodophenyl)propanoic acid] | reduced more effectively compared to prodrug 1 | 98.79 ± 1.21 | 96.01 ± 3.99 | – | 85.71 ± 4.27 | – | – | – | ca. 56% | ~42 | –
N[C@@H](Cc1cc(I)c(Oc2cc(I)c(OC(=O)c3ccccc3O)c(I)c2)c(I)c1)C(=O)O [Prodrug 4, (S)-2-Amino-3-(4-(4-((2-hydroxybenzoyl)oxy)-3,5-diiodophenoxy)-3,5-diiodophenyl)propanoic acid] | slightly increased | 96.79 ± 3.21 | 91.38 ± 5.34 | – | 84.00 ± 3.90 | – | – | – | – | – | –
COc1ccc2cc([C@H](C)C(=O)Oc3c(I)cc(C[C@H](N)C(=O)O)cc3I)ccc2c1 [Prodrug 5, (S)-2-Amino-3-(3,5-diiodo-4-(((S)-2-(6-methoxynaphthalen-2-yl)propanoyl)oxy)phenyl)propanoic acid] | affected by DCF but not by FFA | 96.75 ± 3.25 | 92.98 ± 6.14 | – | 69.44 ± 2.10 | – | – | – | 25% | – | around 10%
COc1ccc2cc([C@H](C)C(=O)Oc3c(I)cc(Oc4c(I)cc(C[C@H](N)C(=O)O)cc4I)cc3I)ccc2c1 [Prodrug 6, (S)-2-Amino-3-(4-(3,5-diiodo-4-(((S)-2-(6-methoxynaphthalen-2-yl)propanoyl)oxy)phenoxy)-3,5-diiodophenyl)propanoic acid] | affected by DCF but not by FFA | 98.33 ± 1.67 | 95.18 ± 4.82 | – | 78.70 ± 3.74 | – | – | – | 75% | – | –
